Where a SMILES comes first, the peptide text is derived from it. The star is where a group is joined. Cbz = O=C(OCc1ccccc1)*; CH2F = FC*
Experiments:
[1] = tested on: obinutuzumab-directed cell death-tolerant clones 1A2, 1D2, 3A4 (derived from SU-DHL-4)
Protocol: The human germinal center B-cell-like diffuse large B-cell lymphoma cell line SU-DHL-4 was treated with 100 μg/mL of N-ethyl-N-nitrosourea for 24 hours to randomly introduce gene mutations. Thereafter, obinutuzumab was added to 200 μg/mL, and culturing was carried out at 37° C. in the presence of 5% CO2 for three weeks.
(§1) After four days of culturing at 37° C. in the presence of 5% CO2, the number of viable cells was measured using CellTiter-Glo 3D Cell Viability Assay (Promega). […] The effects of the combined use were assessed by numerical values obtained as follows: login (proportion of cell proliferation when both agents were added)—log10 (proportion of cell proliferation when obinutuzumab was added alone)—log10 (proportion of cell proliferation when the anti-cancer agent was added alone). Here, for the combined use, a numerical value of less than 0 means a supra-additive effect, 0 means an additive effect, and greater than 0 means a sub-additive effect (J Biopharm Stat. 2012; 22(3): 535-543).

[2] = tested on: obinutuzumab-directed cell death-tolerant clone 1A2; conditions: four days; for effect of combined use with obinutuzumab (Bliss independence): log10(both agents) - log10(obinutuzumab alone) - log10(anti-cancer agent alone): obinutuzumab 1 μg/mL + 4-hydroperoxycyclophosphamide 100 nM, doxorubicin 10 nM, vincristine 1 nM or prednisolone 1 μM, <0 supra-additive, 0 additive, >0 sub-additive
Protocol: as §1
The obinutuzumab-directed cell death-tolerant clone 1A2 was seeded at 1×10^4 cells per well in 96-well plates, and obinutuzumab (0.00015-10 μg/mL) and prednisolone (0.2, 1 μM) were added. After four days of culturing at 37° C. in the presence of 5% CO2, the number of viable cells was measured using CellTiter-Glo 3D Cell Viability Assay (Promega).
(§2) After four days of culturing at 37° C. in the presence of 5% CO2, the number of viable cells was measured using CellTiter-Glo 3D Cell Viability Assay (Promega).
as §2

[3] = tested on: obinutuzumab-directed cell death-tolerant clone 1D2; assay: combined-use cell proliferation test (CellTiter-Glo 3D), clone 1D2; format: cell-based, human; conditions: obinutuzumab 1 μg/mL + 4-hydroperoxycyclophosphamide 100 nM, doxorubicin 10 nM, vincristine 1 nM or prednisolone 1 μM, four days, <0 supra-additive, 0 additive, >0 sub-additive
Protocol: as §1

[4] = tested on: obinutuzumab-directed cell death-tolerant clone 3A4; conditions: obinutuzumab 1 μg/mL + 4-hydroperoxycyclophosphamide 100 nM, doxorubicin 10 nM, vincristine 1 nM or prednisolone 1 μM, four days, <0 supra-additive, 0 additive, >0 sub-additive
Protocol: as §1

[5] = tested on: obinutuzumab-directed cell death-tolerant clone 1A2; format: cell-based; conditions: Z-VAD-FMK 40 μM added to obinutuzumab 1 μg/mL + doxorubicin 10 nM, 72 hours, FIG. 7
Protocol: […] After 72 hours of culturing at 37° C. in the presence of 5% CO2, cells were stained with APO-BrdU TUNEL Assay Kit (Thermo Fisher).
After 72 hours of culturing at 37° C. in the presence of 5% CO2, cells were stained with APO-BrdU TUNEL Assay Kit (Thermo Fisher).

[6] = tested on: RL parent cell line and ADCC-tolerant cell lines RL-E300-1, RL-E300-2, RL-E300-8, RL-E300-22; assay: ADCC sensitivity (calcein release, CD16(158V)/NK-92 effector cells); format: cell-based, human; conditions: ET ratio 1:1
Protocol: Obinutuzumab was added at a concentration of 0.0001-100 ng/mL. CD16(158V)/NK-92 cells were added as effector cells to achieve an ET ratio of 1:1 and the cells were incubated at 37° C. for four hours. In addition, for Maximum Lysis, 1% Triton X-100 was added. After the plates were centrifuged and the supernatants were collected, calcein fluorescence was measured using a plate reader. ADCC sensitivity was assessed with the expression (measurement−background)/(Maximum Lysis−background)×100 (%).
The parent RL cell line and the tolerant cell lines were pre-cultured, with prednisolone (10 μM) added, at 37° C. for 72 hours. […] Obinutuzumab was added at a concentration of 1 ng/mL. CD16(158V)/NK-92 cells were added thereto as effector cells to achieve an ET ratio of 1:1, and the cells were incubated at 37° C. for four hours. In addition, for Maximum Lysis, 1% Triton X-100 was added. After the plates were centrifuged and the supernatants were collected, calcein fluorescence was measured using a plate reader. ADCC sensitivity was assessed with the expression (measurement−background)/(Maximum Lysis−background)×100 (%).

[7] = tested on: CD20 on RL parent and ADCC-tolerant cell lines; assay: CD20 expression by FACS; format: cell-based, human; conditions: prednisolone 10 μM, 72 hours; parent RL cell line and tolerant cell lines; FIG. 10
Protocol: The parent RL cell line and the tolerant cell lines were seeded at 4×10^5 cells per plate, prednisolone (10 μM) was added, and the cells were cultured at 37° C. for 72 hours. The cells were collected and stained with a control IgG antibody or an anti-CD20 antibody (BD Biosciences), and analysis of CD20 expression was carried out using FACS Fortessa (Becton Dickinson).

SU-DHL-4 = assay: four-day cell proliferation test, parent cell line; format: cell-based, human; conditions: SU-DHL-4, four-day cell proliferation test

Molecule: O=P1(N(CCCl)CCCl)NC(OO)CCO1 (centres unmarked) [4-hydroperoxycyclophosphamide]
- effect of combined use with obinutuzumab, in words ([1]; all tolerant clones, combined with obinutuzumab 1 μg/mL, four days): approximately additive effects
- effect of combined use with obinutuzumab (Bliss independence): log10(both agents) - log10(obinutuzumab alone) - log10(anti-cancer agent alone) [2]: −0.03
- effect of combined use with obinutuzumab (Bliss independence): log10(both agents) - log10(obinutuzumab alone) - log10(anti-cancer agent alone) [3]: 0.02
- effect of combined use with obinutuzumab (Bliss independence): log10(both agents) - log10(obinutuzumab alone) - log10(anti-cancer agent alone) [4]: 0.00

Molecule: COC(=O)C[C@H](NC(=O)[C@H](C)NC(=O)[C@@H](NC(=O)OCc1ccccc1)C(C)C)C(=O)CF [Z-VAD-FMK] (Cbz-Val-Ala-Asp(OMe)-CH2F)
- cell proliferation ratio with pan caspase inhibitor ([2]; Z-VAD-FMK 40 μM added to obinutuzumab 0.1, 1 μg/mL + doxorubicin 10 nM, FIG. 8): suppressed the doxorubicin-enhanced inhibitory activity of obinutuzumab on cell proliferation
- DNA fragmentation (TUNEL) induced by obinutuzumab and doxorubicin, with pan caspase inhibitor [5]: suppressed

Molecule: C[C@]12C=CC(=O)C=C1CC[C@@H]1[C@@H]2[C@@H](O)C[C@@]2(C)[C@H]1CC[C@]2(O)C(=O)CO [prednisolone]
- effect of combined use with obinutuzumab (Bliss independence): log10(both agents) - log10(obinutuzumab alone) - log10(anti-cancer agent alone) [3]: −0.10
- ADCC sensitivity after prednisolone pre-treatment ([6]; prednisolone 10 μM 72 hours pre-culture, then obinutuzumab 1 ng/mL, parent and tolerant cell lines, FIG. 11): enhances ADCC sensitivity
- CD20 expression [7]: enhances CD20 expression

Molecule: CC[C@]1(O)C[C@H]2CN(CCc3c([nH]c4ccccc34)[C@@](C(=O)OC)(c3cc4c(cc3OC)N(C=O)[C@H]3[C@@](O)(C(=O)OC)[C@H](OC(C)=O)[C@]5(CC)C=CCN6CC[C@]43[C@@H]65)C2)C1 [vincristine]
- effect of combined use with obinutuzumab (Bliss independence): log10(both agents) - log10(obinutuzumab alone) - log10(anti-cancer agent alone) [2]: −0.35
- effect of combined use with obinutuzumab (Bliss independence): log10(both agents) - log10(obinutuzumab alone) - log10(anti-cancer agent alone) [3]: −0.10

Molecule: obinutuzumab: glycoengineered, genetically recombinant humanized anti-CD20 monoclonal antibody, type II anti-CD20 antibody
- obinutuzumab concentration for 50% cell proliferation inhibition (SU-DHL-4): 0.037 µg/mL
- obinutuzumab concentration for 50% cell proliferation inhibition [1]: at least 200 μg/mL
- ADCC sensitivity of ADCC-tolerant cell lines compared with the parent cell line ([6]; obinutuzumab 0.0001-100 ng/mL, four hours, FIG. 9): significant reduction in ADCC sensitivity
